Data on one molecule can be found in ChEMBL document CHEMBL1151336, “Recent Biosynthetic Studies on Antibiotics” (J Nat Prod, 1980).

The subject of one data set is Bacillus subtilis. Description: Antibacterial activity against Bacillus subtilis. The format is functional.
Another data set has as its system KB. Put plainly: Cytotoxicity against human KB cells. It is filed as functional.
The nature of data set [1]: Toxicity in orally dosed mouse. It is filed as organism-based. Conditions: in vivo, po.
The subject of another data set is Rous sarcoma virus. Description: Antiviral activity against Rous sarcoma virus at 0.5 mg/kg. The format is functional.

≈ marks a conversion by molar mass, not a printed value.

As for `CC(=O)c1cccc(N[C@H]2[C@H](N)[C@@](NC(=O)N(C)C)([C@H](C)O)[C@@](C)(O)[C@@]2(O)COC(=O)c2c(C)cccc2O)c1` [PACTAMYCIN], the results for the MIC against Bacillus subtilis and in the data set on KB were 0.8 µg/mL (≈ 1.43 µM) and 0.003 µg/mL (≈ 0.00537 µM), respectively. Also, the LD50 in data set [1] was 10.7 mg/kg. The inhibition in vivo at 0.5 mg/kg in the data set on Rous sarcoma virus is 30%.
